Source: paper PMC2819846 (Mutation research, 2008)

Columns and labels:
Assay type in all cases: cell-based
Salmonella TA104 = experiment: Salmonella plate-incorporation mutagenicity assay, strain TA104, with S9 mix; settings: for Mutagenic potency, Revertants/µg ± S.E., TA104: plate-incorporation, +S9
Salmonella TA100 = experiment: Salmonella plate-incorporation mutagenicity assay, strain TA100
Salmonella TA98 = experiment: Salmonella plate-incorporation mutagenicity assay, strain TA98, with S9 mix; settings: for Mutagenic potency, Revertants/µg ± S.E., TA98: plate-incorporation, +S9
[1] = TA104 +S9, Test 2, 40 µg/plate, zero-dose 276/260/270
[2] = TA100 +S9, Test 1, 2 µg/plate, zero-dose 99/110/110
[3] = TA100 +S9, Test 1, 5 µg/plate, zero-dose 99/110/110
[4] = TA100 +S9, Test 1, 10 µg/plate, zero-dose 99/110/110
[5] = TA100 +S9, Test 1, 20 µg/plate, zero-dose 99/110/110
[6] = TA100 +S9, Test 1, 40 µg/plate, zero-dose 99/110/110
[7] = TA100 +S9, Test 1, 80 µg/plate, zero-dose 99/110/110
[8] = TA100 +S9, Test 2, 40 µg/plate, zero-dose 84/78/80
[9] = TA100 +S9, Test 3, 40 µg/plate, zero-dose 127/118/125
[10] = TA98 +S9, Test 1, 2 µg/plate, zero-dose 33/40/39
[11] = TA98 +S9, Test 1, 5 µg/plate, zero-dose 33/40/39
[12] = TA98 +S9, Test 1, 10 µg/plate, zero-dose 33/40/39
[13] = TA98 +S9, Test 1, 20 µg/plate, zero-dose 33/40/39
[14] = TA98 +S9, Test 1, 40 µg/plate, zero-dose 33/40/39
[15] = TA98 +S9, Test 1, 80 µg/plate, zero-dose 33/40/39
[16] = TA98 +S9, Test 2, 10 µg/plate, zero-dose 43/41/30
[17] = TA98 +S9, Test 2, 20 µg/plate, zero-dose 43/41/30
[18] = TA98 +S9, Test 2, 40 µg/plate, zero-dose 43/41/30
[19] = TA98 +S9, Test 3, 10 µg/plate, zero-dose 49/50/50
[20] = TA98 +S9, Test 3, 20 µg/plate, zero-dose 49/50/50
[21] = TA98 +S9, Test 3, 40 µg/plate, zero-dose 49/50/50

SMILES	Rev/plate (Salmonella TA104; [1])	Mutagenic potency, Revertants/µg ± S.E., TA104 (Salmonella TA104)	Rev/plate (Salmonella TA100; [2])	Rev/plate (Salmonella TA100; [3])	Rev/plate (Salmonella TA100; [4])	Rev/plate (Salmonella TA100; [5])	Rev/plate (Salmonella TA100; [6])	Rev/plate (Salmonella TA100; [7])	Rev/plate (Salmonella TA100; [8])	Rev/plate (Salmonella TA100; [9])	Mutagenic potency, Revertants/µg ± S.E., TA100 (Salmonella TA100; plate-incorporation, +S9)	Rev/plate (Salmonella TA98; [10])	Rev/plate (Salmonella TA98; [11])	Rev/plate (Salmonella TA98; [12])	Rev/plate (Salmonella TA98; [13])	Rev/plate (Salmonella TA98; [14])	Rev/plate (Salmonella TA98; [15])	Rev/plate (Salmonella TA98; [16])	Rev/plate (Salmonella TA98; [17])	Rev/plate (Salmonella TA98; [18])	other results
O[C@@H]1c2ccccc2-c2c(ccc3ccsc23)[C@H]1O (racemic) [P[4,3-b]T 6,7-diol, (±)-trans-6,7-Dihydrophenanthro[4,3-b]thiophene 6,7-diol]	305/354	9.2 ± 1.3 rev/µg	101 rev/plate	128 rev/plate	126 rev/plate	127 rev/plate	132 rev/plate	137 rev/plate	119/81	136/128	0.4 ± 0.1 rev/µg	34 rev/plate	35 rev/plate	47 rev/plate	52 rev/plate	39 rev/plate	36 rev/plate	27/28	38/27	33/27	Rev/plate (Salmonella TA104; TA104 +S9, Test 2, 5 µg/plate, zero-dose 276/260/270): 330/353; Rev/plate (Salmonella TA104; TA104 +S9, Test 2, 10 µg/plate, zero-dose 276/260/270): 391/347; Rev/plate (Salmonella TA104; TA104 +S9, Test 2, 20 µg/plate, zero-dose 276/260/270): 348/340; Rev/plate (Salmonella TA104; TA104 +S9, Test 3, 5 µg/plate, zero-dose 402/395/336): 438/407; Rev/plate (Salmonella TA104; TA104 +S9, Test 3, 10 µg/plate, zero-dose 402/395/336): 442/462; Rev/plate (Salmonella TA104; TA104 +S9, Test 3, 20 µg/plate, zero-dose 402/395/336): 423/445; Rev/plate (Salmonella TA104; TA104 +S9, Test 3, 40 µg/plate, zero-dose 402/395/336): 365/373; Rev/plate (Salmonella TA100; TA100 +S9, Test 2, 5 µg/plate, zero-dose 84/78/80): 97/98; Rev/plate (Salmonella TA100; TA100 +S9, Test 2, 10 µg/plate, zero-dose 84/78/80): 79/88; Rev/plate (Salmonella TA100; TA100 +S9, Test 2, 20 µg/plate, zero-dose 84/78/80): 94/113; Rev/plate (Salmonella TA100; TA100 +S9, Test 3, 5 µg/plate, zero-dose 127/118/125): 125/135; Rev/plate (Salmonella TA100; TA100 +S9, Test 3, 10 µg/plate, zero-dose 127/118/125): 132/119; Rev/plate (Salmonella TA100; TA100 +S9, Test 3, 20 µg/plate, zero-dose 127/118/125): 134/155; Rev/plate (Salmonella TA98; TA98 +S9, Test 2, 5 µg/plate, zero-dose 43/41/30): 28/34; Rev/plate (Salmonella TA98; TA98 +S9, Test 3, 5 µg/plate, zero-dose 49/50/50): 50/53; Rev/plate (Salmonella TA98; [19]): 43/47; Rev/plate (Salmonella TA98; [20]): 52/47; Rev/plate (Salmonella TA98; [21]): 48/50; Mutagenic potency, Revertants/µg ± S.E., TA98 (Salmonella TA98): −0.2 ± 0.1 rev/µg
O[C@@H]1c2ccccc2-c2c(ccc3ccccc23)[C@H]1O (racemic) [B[c]P 5,6-diol, (± )-trans-5,6-Dihydrobenzo[c]phenanthrene 5,6-diol]	457 rev/plate	2.5 ± 1.2 rev/µg	132 rev/plate	151 rev/plate	147 rev/plate	192 rev/plate	193 rev/plate	263 rev/plate	161/116	210/248	1.6 ± 0.7 rev/µg	31 rev/plate	41 rev/plate	41 rev/plate	29 rev/plate	34 rev/plate	40 rev/plate	43/42	27/49	46/33	Rev/plate (Salmonella TA104; TA104 +S9, Test 2, 80 µg/plate, zero-dose 276/260/270): 506 rev/plate; Rev/plate (Salmonella TA104; TA104 +S9, Test 2, 120 µg/plate, zero-dose 276/260/270): 507 rev/plate; Rev/plate (Salmonella TA100; TA100 +S9, Test 2, 80 µg/plate, zero-dose 84/78/80): 129/144; Rev/plate (Salmonella TA100; TA100 +S9, Test 2, 120 µg/plate, zero-dose 84/78/80): 127/129; Rev/plate (Salmonella TA100; TA100 +S9, Test 3, 80 µg/plate, zero-dose 127/118/125): 306/328; Rev/plate (Salmonella TA100; TA100 +S9, Test 3, 120 µg/plate, zero-dose 127/118/125): 375/304; Mutagenicity call TA100 (Salmonella TA100; plate-incorporation, +S9): (+) (Called mutagenic (+) based on showing reproducible, dose-related increases in rev/plate that reached or exceeded 2-fold relative to zero-dose controls); Rev/plate (Salmonella TA98; TA98 +S9, Test 2, 80 µg/plate, zero-dose 43/41/30): 52/35; Rev/plate (Salmonella TA98; [19]): 51/47; Rev/plate (Salmonella TA98; [20]): 46/60; Rev/plate (Salmonella TA98; [21]): 51/47; Rev/plate (Salmonella TA98; TA98 +S9, Test 3, 100 µg/plate, zero-dose 49/50/50): 32/47; Mutagenic potency, Revertants/µg ± S.E., TA98 (Salmonella TA98): −0.1 ± 0.1 rev/µg
